System: Staphylococcus aureus ATCC 6538
Test: Antibacterial test on treated fabric (AATCC 147:2011; washing standard BS EN ISO 6330 5A)
Type: cell-based
Design: key to Bacteria Growth: (—): no bacterial colonies directly under the treated sample in the contact area were observed
Conditions: 37° C. ± 2° C., 18-24 hrs, no washing; for Bacteria Growth: directly under the treated fabric sample in the contact area; for Inhibition Zone (width of clear zone of inhibition): woven fabric treated with the compound, sample 25 × 50 mm
Procedure: In order to determine if the antimicrobic activity of the textile fabrics, Washing Standart: BS EN ISO 6330 5A and Antibacterial Test Standart: AATCC 147:2011 were followed. Details of the method are given in the experimental section of the description.
• Antibacterial tests were carried out using Washing Standart: BS EN ISO 6330 5A, and Antibacterial Test Standart: AATCC 147:2011.

SMILES	Bacteria Growth	Inhibition Zone (width of clear zone of inhibition) [mm]
Cc1cc(/N=C/c2ccc3ccccc3c2)on1 [Example 2, 3-methyl-N-(2-naphthalenylmethylen)-5-isoxazolamine]	(—)	0
Cc1cc(/N=C/c2cccc3ccccc23)on1 [Example 1, 3-methyl-N-(1-naphthalenylmethylen)-5-isoxazolamine]	(—)	0
Cc1cc(/N=C/c2cc3ccccc3c3ccccc23)on1 [Example 3, 3-methyl-N-(9-phenanthrenylmethylen)-5-isoxazolamine]	(—)	0
